Experimental data as given in paper PMC10178127, “Immunomodulatory Effects of the Pea Defensin Psd1 in the Caco-2/Immune Cells Co-Culture upon Candida albicans Infection” (International Journal of Molecular Sciences, 2023).

Tested on: Caco-2/monocytes co-culture
Assay: Multiplex xMAP cytokine production, Caco-2/monocytes co-culture
Assay type: cell-based, human
Settings: 24 h; for EGF level / Eotaxin level / FGF-2 level / FLT-3L level / Fractalkine level / G-CSF level / GM-CSF level / GROa level / IFNa2 level / IFNg level / IL-1RA level / IL-1a level / IL-1b level / IL-2 level / IL-3 level / IL-4 level / IL-5 level / IL-6 level / IL-7 level / IL-8 level / IL-9 level / IL-10 level / IL-12 (p40) level / IL-12 (p70) level / IL-13 level / IL-15 level / IL-17A level / IL-17E/IL-25 level / IL-17F level / IL-18 level / IL-22 level / IL-27 level / IP-10 level / M-GSF level / MCP-1 level / MCP-3 level / MDC level / MIG level / MIP-1a level / MIP-1b level / PDGF-AA level / PDGF-AB/BB level / RANTES level / TGF-a level / TNFa level / TNFb level / VEGFa level / sCD40L level: 2 µM apical, basolateral medium
From the text: The co-culture model consisted of immune cells (moDCs or monocytes) lying on the bottom of the culture well, and a Caco-2 polarized monolayer, mimicking intestinal epithelium, on a permeable insert. Immune cells were located on the serosal side of the epithelial barrier. In some inserts Candida albicans was loaded to the apical side of the epithelium, mimicking intestinal lumen colonization with this pathogenic fungus. This co-culture model allows yeast cells to contact only with the apical side of epithelial cells, but not with immune cells. Culture medium, containing cytokines, chemokines, and growth factors, produced by both epithelial and immune cells, was taken from basolateral chambers and analyzed by multiplex xMAP technology after incubation during 24 h when C. albicans cells switched to hyphal form.
For growing cells, mimicking epithelial barriers in vitro, Caco-2 cells were seeded onto 24-well polycarbonate Millicell cell culture inserts (0.4 μm, 0.6 cm^2 surface area) (Millipore, Burlington, MA, USA), precoated with 0.2% bovine gelatin (Sigma-Aldrich), at a density of 2.5 × 10^5 cells/cm^2. The cells were grown for 21 days in a complete DMEM/F12 (1:1) medium with re-feeding every 2–3 days with a fresh complete medium. The integrity of the Caco-2 cell monolayer was checked by measuring the transepithelial electrical resistance (TEER) using a Millicell-ERS Voltohmmeter (Millipore). Only cell monolayers with TEER > 400 Ωcm^2 (after subtracting TEER in blank inserts without Caco-2 cells) were used in transport across epithelial monolayer and cytokine production experiments.
Monocytes and moDCs were seeded into the wells of 48- and 24-well plates in the complete RPMI-1640 medium supplemented with 10% human AB serum (HABS, Capricorn Scientific) without antibiotics 24 h prior to the experiment, and kept in a humidified CO2-incubator (5% CO2, 37 °C). After 24 h, the medium in the wells of the 48-well plate was replaced by fresh complete RPMI-1640 medium with 10% HABS, supplemented with 2 µM of Psd1 for the sample wells or fresh medium alone for the control wells. Medium in the wells of the 24-well plate was replaced by fresh complete RPMI-1640 medium with 10% human serum without antibiotics. Then, Millicell inserts with Caco-2 monolayers with TEER > 400 Ωcm^2 were placed into the wells of the 24-well plate, containing monocytes or moDCs. Wells with Millicell inserts with Caco-2 monolayers without immune cells were used as control wells. Medium in apical chambers of Millicell inserts was replaced by fresh complete RPMI-1640 with 10% human serum medium containing Psd1 at the final concentration of 2 µM or Candida albicans at the concentration of 5 × 10^4 cells/mL or yeast cells together with the pea defensin at the same concentration. Fresh complete RPMI-1640 medium only with 10% human serum and without antibiotics was used in control wells. Plates were kept in CO2-incubator (5% CO2, 37 °C) for another 24 h. Culture supernatants from the wells of the 48-well plate and basolateral chambers of the 24-well plate were collected and stored at −70 °C degrees less than one month prior to the analytes assessment. […]

[1] = Caco-2/monocytes co-culture with C. albicans, 2 μM

Psd1: pea defensin from Pisum sativum (UNIPROT P81929), recombinant peptide overexpressed in Escherichia coli (KTCEHLADTYRGVCFTNASCDDHCKNKAHLISGTCHNWKCFCTQNC; UniProt P81929 1-46, looked up)
EGF level (Caco-2/Mono+Candida+Psd1): 7 pg/mL
Eotaxin level (Caco-2/Mono+Candida+Psd1): 4.44 pg/mL
FGF-2 level (Caco-2/Mono+Candida+Psd1): 47.02 pg/mL
FLT-3L level (Caco-2/Mono+Candida+Psd1): 0.83 pg/mL
Fractalkine level (Caco-2/Mono+Candida+Psd1): 27.26 pg/mL
G-CSF level (Caco-2/Mono+Candida+Psd1): 63.23 pg/mL
GM-CSF level (Caco-2/Mono+Candida+Psd1): 2.65 pg/mL
GROa level (Caco-2/Mono+Candida+Psd1): 1596 pg/mL
IFNa2 level (Caco-2/Mono+Candida+Psd1): 15.36 pg/mL
IFNg level (Caco-2/Mono+Candida+Psd1): <2.23↓ pg/ml
IL-1RA level (Caco-2/Mono+Candida+Psd1): 7.97 pg/mL
IL-1a level (Caco-2/Mono+Candida+Psd1): 29.04 pg/mL
IL-1b level (Caco-2/Mono+Candida+Psd1): 26.83 pg/mL
IL-2 level (Caco-2/Mono+Candida+Psd1): <0.95↓ pg/ml
IL-3 level (Caco-2/Mono+Candida+Psd1): <0.60↓ pg/ml
IL-4 level (Caco-2/Mono+Candida+Psd1): 3.07 pg/mL
IL-5 level (Caco-2/Mono+Candida+Psd1): <0.30↓ pg/ml
IL-6 level (Caco-2/Mono+Candida+Psd1): 631.32 pg/mL
IL-7 level (Caco-2/Mono+Candida+Psd1): <0.38↓ pg/ml
IL-8 level (Caco-2/Mono+Candida+Psd1): 8138 pg/mL
IL-9 level (Caco-2/Mono+Candida+Psd1): 6.07 pg/mL
IL-10 level (Caco-2/Mono+Candida+Psd1): 4.47 pg/mL
IL-12 (p40) level (Caco-2/Mono+Candida+Psd1): 25.99 pg/mL
IL-12 (p70) level (Caco-2/Mono+Candida+Psd1): <1.68↓ pg/ml
IL-13 level (Caco-2/Mono+Candida+Psd1): 25.38 pg/mL
IL-15 level (Caco-2/Mono+Candida+Psd1): 1.44 pg/mL
IL-17A level (Caco-2/Mono+Candida+Psd1): 2.9 pg/mL
IL-17E/IL-25 level (Caco-2/Mono+Candida+Psd1): <18.85↓ pg/ml
IL-17F level (Caco-2/Mono+Candida+Psd1): <19.03↓ pg/ml
IL-18 level (Caco-2/Mono+Candida+Psd1): 3.62 pg/mL
IL-22 level (Caco-2/Mono+Candida+Psd1): 24.13 pg/mL
IL-27 level (Caco-2/Mono+Candida+Psd1): 63.98 pg/mL
IP-10 level (Caco-2/Mono+Candida+Psd1): 35.99 pg/mL
M-GSF level (Caco-2/Mono+Candida+Psd1): 34.31 pg/mL
MCP-1 level (Caco-2/Mono+Candida+Psd1): 9510 pg/mL
MCP-3 level (Caco-2/Mono+Candida+Psd1): 273.49 pg/mL
MDC level (Caco-2/Mono+Candida+Psd1): 1060 pg/mL
MIG level (Caco-2/Mono+Candida+Psd1): 50.41 pg/mL
MIP-1a level (Caco-2/Mono+Candida+Psd1): 22.02 pg/mL
MIP-1b level (Caco-2/Mono+Candida+Psd1): 53.4 pg/mL
PDGF-AA level (Caco-2/Mono+Candida+Psd1): 341.69 pg/mL
PDGF-AB/BB level (Caco-2/Mono+Candida+Psd1): 805.91 pg/mL
RANTES level (Caco-2/Mono+Candida+Psd1): 78.92 pg/mL
TGF-a level (Caco-2/Mono+Candida+Psd1): 2.79 pg/mL
TNFa level (Caco-2/Mono+Candida+Psd1): 33.8 pg/mL
TNFb level (Caco-2/Mono+Candida+Psd1): 11.12 pg/mL
VEGFa level (Caco-2/Mono+Candida+Psd1): 523.74 pg/mL
sCD40L level (Caco-2/Mono+Candida+Psd1): 89.41 pg/mL
EGF level (Caco-2/Mono+Psd1): 9.18 pg/mL
Eotaxin level (Caco-2/Mono+Psd1): 4.17 pg/mL
FGF-2 level (Caco-2/Mono+Psd1): 43.83 pg/mL
FLT-3L level (Caco-2/Mono+Psd1): 1.29 pg/mL
Fractalkine level (Caco-2/Mono+Psd1): 29.68 pg/mL
G-CSF level (Caco-2/Mono+Psd1): 80.21 pg/mL
GM-CSF level (Caco-2/Mono+Psd1): 4.74 pg/mL
GROa level (Caco-2/Mono+Psd1): 1849 pg/mL
IFNa2 level (Caco-2/Mono+Psd1): 18.56 pg/mL
IFNg level (Caco-2/Mono+Psd1): <2.23↓ pg/ml
IL-1RA level (Caco-2/Mono+Psd1): 10.99 pg/mL
IL-1a level (Caco-2/Mono+Psd1): 137.08 pg/mL
IL-1b level (Caco-2/Mono+Psd1): 62.38 pg/mL
IL-2 level (Caco-2/Mono+Psd1): 3.01 pg/mL
IL-3 level (Caco-2/Mono+Psd1): <0.60↓ pg/ml
IL-4 level (Caco-2/Mono+Psd1): 2.67 pg/mL
IL-5 level (Caco-2/Mono+Psd1): <0.30↓ pg/ml
IL-6 level (Caco-2/Mono+Psd1): 830.31 pg/mL
IL-7 level (Caco-2/Mono+Psd1): <0.38↓ pg/ml
IL-8 level (Caco-2/Mono+Psd1): 7130 pg/mL
IL-9 level (Caco-2/Mono+Psd1): 6.07 pg/mL
IL-10 level (Caco-2/Mono+Psd1): 8.82 pg/mL
IL-12 (p40) level (Caco-2/Mono+Psd1): 40.75 pg/mL
IL-12 (p70) level (Caco-2/Mono+Psd1): 2.06 pg/mL
IL-13 level (Caco-2/Mono+Psd1): 23.46 pg/mL
IL-15 level (Caco-2/Mono+Psd1): 2.33 pg/mL
IL-17A level (Caco-2/Mono+Psd1): 3.99 pg/mL
IL-17E/IL-25 level (Caco-2/Mono+Psd1): <18.85↓ pg/ml
IL-17F level (Caco-2/Mono+Psd1): <19.03↓ pg/ml
IL-18 level (Caco-2/Mono+Psd1): 5.64 pg/mL
IL-22 level (Caco-2/Mono+Psd1): 18.63 pg/mL
IL-27 level (Caco-2/Mono+Psd1): 76.02 pg/mL
IP-10 level (Caco-2/Mono+Psd1): 70.11 pg/mL
M-GSF level (Caco-2/Mono+Psd1): 34.31 pg/mL
MCP-1 level (Caco-2/Mono+Psd1): 9656 pg/mL
MCP-3 level (Caco-2/Mono+Psd1): 354.38 pg/mL
MDC level (Caco-2/Mono+Psd1): 1230 pg/mL
MIG level (Caco-2/Mono+Psd1): 129.1 pg/mL
MIP-1a level (Caco-2/Mono+Psd1): 26.21 pg/mL
MIP-1b level (Caco-2/Mono+Psd1): 45.94 pg/mL
PDGF-AA level (Caco-2/Mono+Psd1): 357.15 pg/mL
PDGF-AB/BB level (Caco-2/Mono+Psd1): 985.45 pg/mL
RANTES level (Caco-2/Mono+Psd1): 123.08 pg/mL
TGF-a level (Caco-2/Mono+Psd1): 4.39 pg/mL
TNFa level (Caco-2/Mono+Psd1): 44.58 pg/mL
TNFb level (Caco-2/Mono+Psd1): 10.19 pg/mL
VEGFa level (Caco-2/Mono+Psd1): 384.49 pg/mL
sCD40L level (Caco-2/Mono+Psd1): 94.06 pg/mL
production of IL-4 [1]: increased the production
production of IL-8/CXCL8, IL-12, TNFα, G-CSF, and GM-CSF [1]: decreased inhibiting action of pathogenic fungus
production of IL-22 [1]: statistically significantly (p < 0.05) increased
production of MIG/CXCL9 [1]: decreased the production
production of IL-2, IL-10, MDC and IL-17 (Caco-2/monocytes co-culture, 2 μM apical, no Candida): statistically significant increase
